Legend:
[1] = tested on: P-gp; parameters: method as in PMID 23670704; settings: IPRL and IPML models; cited from earlier work
[2] = Immobilised artificial membrane (IAM) chromatography; format: physicochemical; settings: extrapolated to 100% water; mean of four experiments
Description: IAM chromatography provided an experimental measure of substrate membrane affinity and phospholipid interaction. The IAM column (Regis Technologies Inc., Hichrom, Reading, UK; IAM.PC.DD2 10 cm x 4.6 mm ID column) was run under isocratic eluting conditions with the retention of all compounds determined under three mobile phase conditions: 10%, 20% and 30% acetonitrile in water, and from which the theoretical retention time in 100% water was calculated by linear regression. LogK^IAM values were calculated according to Eq. 2:2 LogK^IAM=LogTr−T0/T0
where Tr and T0 are respectively the retention times of the substrate in 100% water and of the unretained compound, i.e. eluting within the solvent front of 75 s in all experiments.

[3] = biological target: mouse Mdr1b (Mus musculus, UniProt P06795); assay: Gentest ABC transporter membrane ATPase assay; settings: 0–300 μM, 30 min, 37°C
Sequence of mouse Mdr1b (P06795 whole entry): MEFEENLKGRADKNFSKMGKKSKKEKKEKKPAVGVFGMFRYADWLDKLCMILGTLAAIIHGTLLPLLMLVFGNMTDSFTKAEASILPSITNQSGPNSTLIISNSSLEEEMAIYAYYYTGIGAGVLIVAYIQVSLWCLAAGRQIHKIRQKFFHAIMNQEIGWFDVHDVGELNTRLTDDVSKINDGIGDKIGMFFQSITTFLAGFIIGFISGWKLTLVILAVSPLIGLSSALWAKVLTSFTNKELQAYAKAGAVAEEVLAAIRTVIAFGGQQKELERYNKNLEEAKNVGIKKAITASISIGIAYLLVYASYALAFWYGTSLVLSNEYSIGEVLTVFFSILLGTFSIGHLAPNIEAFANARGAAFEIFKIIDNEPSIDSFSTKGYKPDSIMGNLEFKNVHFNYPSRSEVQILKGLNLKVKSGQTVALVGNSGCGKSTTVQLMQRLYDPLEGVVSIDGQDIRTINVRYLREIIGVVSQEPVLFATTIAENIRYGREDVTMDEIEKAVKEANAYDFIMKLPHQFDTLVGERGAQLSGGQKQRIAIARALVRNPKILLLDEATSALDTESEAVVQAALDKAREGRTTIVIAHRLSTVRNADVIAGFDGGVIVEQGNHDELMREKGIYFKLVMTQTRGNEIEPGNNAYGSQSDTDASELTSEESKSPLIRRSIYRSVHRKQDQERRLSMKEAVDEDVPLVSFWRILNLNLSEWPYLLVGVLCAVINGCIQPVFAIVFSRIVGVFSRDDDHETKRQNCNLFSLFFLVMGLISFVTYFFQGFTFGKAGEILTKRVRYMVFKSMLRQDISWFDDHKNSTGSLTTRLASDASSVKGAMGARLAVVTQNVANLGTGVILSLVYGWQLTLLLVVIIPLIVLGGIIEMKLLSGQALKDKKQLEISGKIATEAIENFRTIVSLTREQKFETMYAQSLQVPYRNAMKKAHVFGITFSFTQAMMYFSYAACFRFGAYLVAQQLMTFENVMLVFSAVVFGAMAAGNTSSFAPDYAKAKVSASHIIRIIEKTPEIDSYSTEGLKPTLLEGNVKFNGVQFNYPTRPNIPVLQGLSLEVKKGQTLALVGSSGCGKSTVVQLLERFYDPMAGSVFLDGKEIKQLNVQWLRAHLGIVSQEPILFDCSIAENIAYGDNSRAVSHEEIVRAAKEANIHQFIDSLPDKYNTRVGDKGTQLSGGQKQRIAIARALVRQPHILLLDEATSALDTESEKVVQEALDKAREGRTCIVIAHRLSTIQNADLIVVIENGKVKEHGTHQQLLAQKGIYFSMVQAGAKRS

[4] = biological target: mouse Mdr1a (Mus musculus, UniProt P21447); assay: Gentest ABC transporter membrane ATPase assay; settings: 0–300 μM, 30 min, 37°C
Sequence of mouse Mdr1a (P21447 whole entry): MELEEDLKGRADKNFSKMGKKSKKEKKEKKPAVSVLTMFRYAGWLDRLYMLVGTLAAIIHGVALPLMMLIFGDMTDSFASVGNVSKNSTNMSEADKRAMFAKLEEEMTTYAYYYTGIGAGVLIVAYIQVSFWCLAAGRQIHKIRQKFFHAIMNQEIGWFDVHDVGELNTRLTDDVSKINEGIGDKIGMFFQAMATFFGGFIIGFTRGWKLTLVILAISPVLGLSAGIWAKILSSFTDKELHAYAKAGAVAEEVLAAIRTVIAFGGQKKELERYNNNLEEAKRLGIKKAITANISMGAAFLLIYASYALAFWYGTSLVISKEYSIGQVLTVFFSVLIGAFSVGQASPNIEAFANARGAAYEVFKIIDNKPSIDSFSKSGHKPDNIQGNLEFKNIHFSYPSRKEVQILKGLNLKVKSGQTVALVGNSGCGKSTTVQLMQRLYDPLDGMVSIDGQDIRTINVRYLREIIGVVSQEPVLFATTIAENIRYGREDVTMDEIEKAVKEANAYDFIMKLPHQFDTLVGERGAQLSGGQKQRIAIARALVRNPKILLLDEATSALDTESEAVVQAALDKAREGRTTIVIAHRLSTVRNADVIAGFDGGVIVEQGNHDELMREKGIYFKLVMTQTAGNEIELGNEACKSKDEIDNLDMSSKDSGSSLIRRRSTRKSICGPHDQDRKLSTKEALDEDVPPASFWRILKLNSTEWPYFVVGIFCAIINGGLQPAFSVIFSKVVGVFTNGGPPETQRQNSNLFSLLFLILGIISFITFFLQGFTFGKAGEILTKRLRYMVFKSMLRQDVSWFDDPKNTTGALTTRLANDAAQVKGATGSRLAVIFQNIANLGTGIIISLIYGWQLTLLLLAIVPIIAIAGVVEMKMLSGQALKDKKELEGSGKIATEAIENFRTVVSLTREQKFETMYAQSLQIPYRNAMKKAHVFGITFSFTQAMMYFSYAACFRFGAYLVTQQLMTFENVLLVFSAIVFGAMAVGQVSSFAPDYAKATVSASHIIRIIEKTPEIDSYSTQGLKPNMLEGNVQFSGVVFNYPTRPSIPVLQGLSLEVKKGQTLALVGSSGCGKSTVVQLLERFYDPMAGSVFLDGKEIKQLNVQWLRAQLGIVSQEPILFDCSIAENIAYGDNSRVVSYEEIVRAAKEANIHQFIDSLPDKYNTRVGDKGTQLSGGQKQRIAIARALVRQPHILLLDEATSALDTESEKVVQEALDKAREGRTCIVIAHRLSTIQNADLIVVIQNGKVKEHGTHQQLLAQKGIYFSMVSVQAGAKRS
Description: (§1) The Gentest ATPase assay (Corning, Germany) was used to investigate the binding kinetics of the panel of P-gp substrates against membranes constituted to display human MDR1, mouse Mdr1a, mouse Mdr1b and mouse Bcrp. The assays measure the accumulation of inorganic phosphate (absorbance at 800 nm) produced in the breakdown of ATP to ADP. […] The assays were used in accordance with the manufacturer’s protocol to calculate (GraphPad Prism) the Michaelis-Menten parameters Km and VMAX. For the assay test compounds were serially diluted to produce an assay concentration range of 0–300 μM with the kinetics of ATP turnover examined over 30 min at 37°C.

[5] = biological target: T1, mouse Bcrp (Mus musculus, UniProt Q7TMS5); assay: Gentest ABC transporter membrane ATPase assay; format: biochemical; settings: ATPase; 0 indicates no enzyme turnover
T1 construct: purchased Corning (Gentest), Germany
T1 sequence (Q7TMS5 1-657): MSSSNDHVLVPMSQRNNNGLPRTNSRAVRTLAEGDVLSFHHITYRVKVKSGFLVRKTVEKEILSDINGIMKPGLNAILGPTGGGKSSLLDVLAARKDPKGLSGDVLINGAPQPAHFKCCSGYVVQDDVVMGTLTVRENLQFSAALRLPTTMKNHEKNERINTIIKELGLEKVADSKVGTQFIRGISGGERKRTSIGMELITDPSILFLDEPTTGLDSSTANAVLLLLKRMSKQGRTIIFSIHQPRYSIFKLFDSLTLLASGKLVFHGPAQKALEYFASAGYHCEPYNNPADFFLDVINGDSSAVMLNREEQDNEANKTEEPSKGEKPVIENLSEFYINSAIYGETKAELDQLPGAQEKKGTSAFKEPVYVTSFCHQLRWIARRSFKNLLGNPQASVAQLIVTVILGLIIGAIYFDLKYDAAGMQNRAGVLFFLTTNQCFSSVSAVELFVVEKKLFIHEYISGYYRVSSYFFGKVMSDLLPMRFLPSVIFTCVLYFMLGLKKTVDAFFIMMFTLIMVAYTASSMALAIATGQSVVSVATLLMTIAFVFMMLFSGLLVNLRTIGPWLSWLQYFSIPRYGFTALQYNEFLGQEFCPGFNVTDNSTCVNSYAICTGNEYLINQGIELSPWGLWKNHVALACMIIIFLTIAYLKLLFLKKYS
Description: as §1

[6] = tested on: P-gp (Mdr1a/1b) in mouse intestinal segments; assay: Ussing chamber intestinal permeability, ileal segments Mdr1a/1b (+/+) vs (−/−); settings: mucosal to serosal, 50 μM, 180 min
Description: The bathing fluid for both mucosal and serosal surfaces (3 mL volume in each chamber) comprised oxygenated Krebs-Henseleit buffer maintained at 37°C (heating block) under stirred conditions (gas flow manifold). […] Any intestinal segments presenting an initial TEER of lower than 80 Ω.cm^2 were discarded prior to the experiment, likewise any segments whose TEER decreased by more than 10% over the course of the experiment were excluded.
Thereafter permeability coefficients were determined according to Eq. 4:4 ρ=dM/dt/A^∗C0

[7] = biological target: human MDR1 (Homo sapiens, UniProt P08183); assay: Gentest ABC transporter membrane ATPase assay; settings: ATPase, 0–300 μM, 30 min, 37°C
Sequence of human MDR1 (P08183 whole entry): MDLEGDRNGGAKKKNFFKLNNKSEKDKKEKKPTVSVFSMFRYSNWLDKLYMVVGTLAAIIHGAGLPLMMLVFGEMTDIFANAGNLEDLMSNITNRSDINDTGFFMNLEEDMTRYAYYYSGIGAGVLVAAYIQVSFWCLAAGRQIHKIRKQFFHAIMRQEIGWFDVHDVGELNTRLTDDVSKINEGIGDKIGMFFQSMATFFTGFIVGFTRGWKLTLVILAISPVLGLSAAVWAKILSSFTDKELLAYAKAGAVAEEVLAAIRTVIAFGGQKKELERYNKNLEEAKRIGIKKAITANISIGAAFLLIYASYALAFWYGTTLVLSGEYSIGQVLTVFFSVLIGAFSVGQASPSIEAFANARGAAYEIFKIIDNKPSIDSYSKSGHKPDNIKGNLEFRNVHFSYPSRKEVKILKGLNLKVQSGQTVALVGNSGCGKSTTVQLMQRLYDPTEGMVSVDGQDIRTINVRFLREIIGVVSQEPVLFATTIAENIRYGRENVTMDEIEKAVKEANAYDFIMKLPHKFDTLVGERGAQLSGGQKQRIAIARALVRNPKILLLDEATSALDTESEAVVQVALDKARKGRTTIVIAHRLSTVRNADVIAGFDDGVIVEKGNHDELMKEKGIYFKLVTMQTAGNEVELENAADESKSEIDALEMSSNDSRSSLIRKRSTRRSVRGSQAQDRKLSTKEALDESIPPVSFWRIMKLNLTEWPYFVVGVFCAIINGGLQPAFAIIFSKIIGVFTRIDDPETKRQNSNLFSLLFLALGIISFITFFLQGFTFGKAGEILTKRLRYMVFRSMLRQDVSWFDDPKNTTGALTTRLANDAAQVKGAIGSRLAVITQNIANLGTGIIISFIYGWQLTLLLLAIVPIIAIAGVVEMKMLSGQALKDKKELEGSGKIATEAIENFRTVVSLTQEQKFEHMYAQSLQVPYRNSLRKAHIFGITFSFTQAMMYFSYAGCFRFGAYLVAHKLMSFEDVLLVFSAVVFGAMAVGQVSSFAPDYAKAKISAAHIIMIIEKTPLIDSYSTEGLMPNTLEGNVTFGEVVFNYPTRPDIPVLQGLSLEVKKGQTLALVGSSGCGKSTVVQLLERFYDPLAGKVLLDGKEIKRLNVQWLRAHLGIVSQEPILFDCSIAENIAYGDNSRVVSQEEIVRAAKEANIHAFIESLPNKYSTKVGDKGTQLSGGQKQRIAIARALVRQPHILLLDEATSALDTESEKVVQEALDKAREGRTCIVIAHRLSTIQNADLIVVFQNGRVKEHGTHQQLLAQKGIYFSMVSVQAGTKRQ
Description: as §1

[8] = biological target: human MDR1 (P-gp) (Homo sapiens, UniProt P08183); assay: Gentest ABC transporter membrane ATPase assay; settings: human, membranes displaying human MDR1 (Gentest ATPase assay)
Sequence of human MDR1 (P-gp) (P08183 whole entry, the tested form may be a part): as the sequence (P08183 whole entry) above
Description: as §1

[9] = tested on: P-glycoprotein (Mdr1a/Mdr1b) in isolated perfused mouse lung; assay: Isolated perfused mouse lung (IPML) airway-to-perfusate absorption, Mdr1a/1b (+/+) vs (−/−); settings: male, mouse, 50 μM
Description: The atria and the lower half of the heart were cut to allow the free flow of perfusate. The lungs were removed and suspended vertically in a custom water-jacketed glass thorax (Radleys, Essex, UK) maintained at 37°C.
Following dosing of compound into the IPML airways serial samples (250 μL) were collected for bioanalysis from the 10 mL recirculating perfusate reservoir. Each sample collected from the reservoir was replaced with an equal volume of fresh warmed, oxygenated perfusate. Upon termination of the experiment the dose solutions, apparatus washings and perfusate samples were collected for mass balance calculations enabling determination of the actual total dose delivered to the lungs.
Radioactive compounds were directly analysed by liquid scintillation counting. Volumes of 50 μL perfusate samples were mixed with 3 mL of Scintisafe 3 Liquid Scintillation Fluid (Fisher, UK) and transferred to vials for scintillation counting using a TriCarb 2900TR (Packard Bioscience, USA).
After accounting for the mass of compound removed at each sample point, plots of the cumulative ‘%deposited dose absorbed’ versus ‘time’ were generated and subject to nonlinear regression analysis according to a first-order absorption one-compartment accumulating model (Eq. 1) to generate estimates for the extent (F) and rate (Ka) of absorption from the IPML airways to the recirculating perfusate.
The data was also subject to standard non-compartmental analysis, specifically Area Under Curve (AUC0–30 min) of ‘%deposited dose absorbed’ versus ‘time’ (units: %Dose.min) and reflecting for the exclusively accumulating perfusate ‘compartment’ the exposure arising from the IPML absorption process alone.

[10] = Multi-lamellar liposome vesicle (MLV) partitioning; format: physicochemical; settings: (C0−CS)/C0, 1 μg/mL, 4 h, 37°C, PBS pH 7.4
Description: MLVs were formed as previously described ([20]). Briefly, solutions of 8 mg phosphatidylcholine and 2 mg phosphatidylglycerol in 10 mL chloroform were completely dried to a lipid film (rotation under vacuum).
These preparations were then incubated at 37°C for 4 h under shaking conditions to allow equilibration of compound between the lipid and aqueous fractions. The MLVs were then pelleted and 100 μL of supernatant removed for analysis by radiometric or LC-MS/MS methods as described above. Partitioning into the MLVs was determined according to Eq. 3:3 MLVpartitioning=C0−CS/C0
where C0 is the initial compound concentration (1 μg/mL) and CS is the compound concentration present in the aqueous supernatant at the end of 4 h incubation.

- LogK^IAM [2]: 1.24
- Km [3]: 32 µM
- Vmax [3]: 47.1 µM/min
- Km [4]: 31.7 µM
- Vmax [4]: 39.5 µM/min
- Vmax [5]: 0 µM/min
- Mdr1a/1b (−/−) Permeability coefficient ([6]; P-gp knockout intestinal segments): 15.73 ± 3.52 cm/s (x10^−6)
- Mdr1a/1b (+/+) Permeability coefficient ([6]; wild-type intestinal segments): 1.56 ± 0.69 cm/s (x10^−6)
- Vmax [7]: 41.3 µM/min
- Km at 30 min [8]: 24.9 µM
- Mdr1a/1b (+/+) ‘F’ estimate by model fit [95% CI) [9]: 25.5 [11.4 to 39.6]
- Mdr1a/1b (-/-) ‘F’ estimate by model fit [95% CI) [9]: 29.1 [19.5 to 38.6]
- Mdr1a/1b (+/+) % Deposited Dose absorbed ([9]; 30 min): 20.0%
- Mdr1a/1b (-/-) % Deposited Dose absorbed ([9]; 30 min): 20.0%
- MLV Partitioning [10]: 0.45
Structure (SMILES): CC(C)(C)NC(=O)[C@@H]1C[C@@H]2CCCC[C@@H]2CN1C[C@@H](O)[C@H](Cc1ccccc1)NC(=O)[C@H](CC(N)=O)NC(=O)c1ccc2ccccc2n1 [Saquinavir, saquinavir]
- effect of P-gp inhibition (GF120918) upon pulmonary absorption [1]: unaffected

From article PMC5736782, “The Differential Absorption of a Series of P-Glycoprotein Substrates in Isolated Perfused Lungs from Mdr1a/1b Genetic Knockout Mice can be Attributed to Distinct Physico-Chemical Properties: an Insight into Predicting Transporter-Mediated, Pulmonary Specific Disposition” (Pharmaceutical Research, 2017)
